Measured values: US20080009418A1, “Selective Inhibitors” (Alchemia LTD., priority 2004, published 2008)

Assays:
[1] = target: T1, Human neuropeptide Y (NPY-Y1) (Homo sapiens, UniProt P25929); assay: Radioligand binding, human neuropeptide Y NPY-Y1 membranes, FlashPlate, [125I]-PYY; conditions: compound at 10 μM; [125I]-PYY, human NPY-Y1 membranes
T1 construct: purchased Perkin Elmer Biosignal
T1 sequence (P25929 1-384): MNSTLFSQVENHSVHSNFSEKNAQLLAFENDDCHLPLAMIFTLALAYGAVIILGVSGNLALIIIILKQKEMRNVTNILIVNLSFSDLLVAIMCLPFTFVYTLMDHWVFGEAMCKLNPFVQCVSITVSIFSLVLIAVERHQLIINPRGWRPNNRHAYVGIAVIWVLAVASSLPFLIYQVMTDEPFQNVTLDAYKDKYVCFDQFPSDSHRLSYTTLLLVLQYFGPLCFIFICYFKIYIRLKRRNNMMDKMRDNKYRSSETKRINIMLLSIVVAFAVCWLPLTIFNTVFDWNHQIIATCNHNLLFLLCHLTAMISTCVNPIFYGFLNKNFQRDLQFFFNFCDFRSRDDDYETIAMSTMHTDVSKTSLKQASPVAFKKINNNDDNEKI
Method in brief: (§1)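 Cloned human receptor membranes were coated onto FlashPlate wells and incubated with radioligand and compound (added from a 0.5 mM DMSO daughter plate) for 1 hour at room temperature in the dark. Scintillation counting gave percent inhibition, with DMSO defining total and reference ligand defining non-specific binding.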

Human neurokinin (NK1) = target: T2, Human neurokinin (NK1) (Homo sapiens, UniProt P25103); assay: Radioligand binding, human neurokinin NK1 membranes, filtration, [125I]-Substance P; conditions: compound at 10 μM; [125I]-Substance P, human NK1 membranes
T2 construct: purchased Perkin Elmer Biosignal
Method in brief: (§2)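 Membranes from cloned human receptors were incubated with compound and radioligand for 1 hour at room temperature. Bound ligand was collected on 0.3% PEI-soaked filters, washed with cold 50 mM Tris-HCl pH 7.4, and counted by scintillation. Percent inhibition was computed against DMSO totals and reference-ligand nonspecific wells.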

Human opioid (ORL1) = target: T3, Human opioid (ORL1) (Homo sapiens, UniProt P41146); assay: Radioligand binding, human opioid ORL1 membranes, FlashPlate, [125I]-Nociceptin; conditions: compound at 10 μM, [125I]-Nociceptin, human ORL1 membranes
T3 construct: purchased Perkin Elmer Biosignal
Method in brief: as §1

Mouse urotensin (mUR2) = target: T4, Mouse urotensin (mUR2) (Mus musculus, UniProt Q8VIH9); assay: Radioligand binding, mouse urotensin mUR2 membranes, FlashPlate, [125I]-Urotensin II; conditions: compound at 10 μM; [125I]-Urotensin II, mouse mUR2 membranes
T4 construct: purchased Perkin Elmer Biosignal
T4 sequence (Q8VIH9 1-385): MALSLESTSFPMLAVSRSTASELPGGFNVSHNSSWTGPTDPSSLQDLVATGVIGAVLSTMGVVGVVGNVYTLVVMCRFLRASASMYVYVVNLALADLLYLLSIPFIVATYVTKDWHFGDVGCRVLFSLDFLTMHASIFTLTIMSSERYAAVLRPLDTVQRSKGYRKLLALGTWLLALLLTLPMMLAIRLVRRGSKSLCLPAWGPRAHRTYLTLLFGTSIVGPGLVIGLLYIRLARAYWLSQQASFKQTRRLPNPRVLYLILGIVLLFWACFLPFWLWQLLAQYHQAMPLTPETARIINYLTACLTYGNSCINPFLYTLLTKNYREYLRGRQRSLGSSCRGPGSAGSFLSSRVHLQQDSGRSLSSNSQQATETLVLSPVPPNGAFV
Method in brief: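 Cloned mouse urotensin (mUR2) receptor membranes from Perkin Elmer Biosignal were immobilized in FlashPlate microplates using a proprietary coating. Each well got 19.5 μl buffer, then 0.5 μl of DMSO, reference ligand, or compound. Adding 5 μl of [125I]-Urotensin II, diluted to 5× final concentration in binding buffer, started binding. Plates were sealed with TopSeal-A and incubated 1 hour at room temperature in the dark. Wells were counted for 30 seconds each on a TopCount after a 60-second delay, and percentage inhibition was calculated.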

Human κ-Opioid (KOP) = target: T5, Human κ-Opioid (KOP) (Homo sapiens, UniProt P41145); assay: Radioligand binding, human κ-opioid (KOP) membranes, filtration, [3H]-Diprenorphine; conditions: compound at 10 μM; [3H]-Diprenorphine, human KOP membranes
T5 construct: purchased Perkin Elmer Biosignal
Method in brief: as §2

Human melanocortin (MC5) = target: T6, Human melanocortin (MC5) (Homo sapiens, UniProt P33032); assay: Radioligand binding, human melanocortin MC5 membranes, FlashPlate, [125I]-NDP-αMSH; conditions: compound at 10 μM; [125I]-NDP-αMSH, human MC5 membranes
T6 construct: purchased Perkin Elmer Biosignal
Method in brief: as §1

Human Melanocortin (MC4) = target: T7, Human Melanocortin (MC4) (Homo sapiens, UniProt P32245); assay: Radioligand binding, human melanocortin MC4 membranes, FlashPlate, [125I]-NDP-αMSH; conditions: compound at 10 μM, [125I]-NDP-αMSH, human MC4 membranes
T7 construct: purchased Perkin Elmer Biosignal
Method in brief: as §1

Human Melanocortin (MC3) = target: T8, Human Melanocortin (MC3) (Homo sapiens, UniProt P41968); assay: Radioligand binding, human melanocortin MC3 membranes, FlashPlate, [125I]-NDP-αMSH; conditions: compound at 10 μM, [125I]-NDP-αMSH, human MC3 membranes
T8 construct: purchased Perkin Elmer Biosignal
Method in brief: as §1

Human δ-opioid (DOP) = target: T9, Human δ-opioid (DOP) (Homo sapiens, UniProt P41143); assay: Radioligand binding, human δ-opioid (DOP) membranes, FlashPlate, [3H]-Bremazocine; conditions: compound at 10 μM; [3H]-Bremazocine, human DOP membranes
T9 construct: purchased Perkin Elmer Biosignal
Method in brief: as §1

Human μ-opioid (MOP) = target: T10, Human μ-opioid (MOP) (Homo sapiens, UniProt P35372); assay: Radioligand binding, human μ-opioid (MOP) membranes, FlashPlate, [3H]-Naloxone; conditions: compound at 10 μM, [3H]-Naloxone, human MOP membranes
T10 construct: purchased Perkin Elmer Biosignal
Method in brief: as §1

[2] = target: T11, Human melanin-concentrating hormone (MCH1) (Homo sapiens, UniProt Q99705); assay: Radioligand binding, human melanin-concentrating hormone MCH1 membranes, FlashPlate, [125I]-S36057; conditions: compound at 10 μM, [125I]-S36057, human MCH1 membranes
T11 construct: purchased Perkin Elmer Biosignal
Method in brief: as §1

T2 sequence (P25103 whole entry): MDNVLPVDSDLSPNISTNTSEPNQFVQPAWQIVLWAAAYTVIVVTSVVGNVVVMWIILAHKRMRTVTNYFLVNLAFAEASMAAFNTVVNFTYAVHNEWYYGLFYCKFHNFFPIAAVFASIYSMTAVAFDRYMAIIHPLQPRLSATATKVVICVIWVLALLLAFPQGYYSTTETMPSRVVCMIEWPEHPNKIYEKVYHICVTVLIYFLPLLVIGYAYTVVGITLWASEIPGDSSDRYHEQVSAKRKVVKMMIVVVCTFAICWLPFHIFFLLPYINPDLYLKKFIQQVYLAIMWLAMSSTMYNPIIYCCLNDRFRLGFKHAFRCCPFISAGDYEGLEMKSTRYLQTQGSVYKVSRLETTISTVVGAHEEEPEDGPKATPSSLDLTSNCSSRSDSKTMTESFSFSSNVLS
T9 sequence (P41143 whole entry): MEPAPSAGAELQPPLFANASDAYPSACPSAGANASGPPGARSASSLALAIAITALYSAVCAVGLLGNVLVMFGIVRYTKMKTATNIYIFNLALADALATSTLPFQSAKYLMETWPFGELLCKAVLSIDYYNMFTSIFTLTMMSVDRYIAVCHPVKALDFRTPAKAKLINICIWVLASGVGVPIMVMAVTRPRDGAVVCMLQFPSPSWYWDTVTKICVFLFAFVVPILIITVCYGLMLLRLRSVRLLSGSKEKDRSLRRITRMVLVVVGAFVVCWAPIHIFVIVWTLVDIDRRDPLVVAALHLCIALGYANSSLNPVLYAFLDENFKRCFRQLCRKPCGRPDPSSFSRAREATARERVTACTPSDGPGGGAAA
T3 sequence (P41146 whole entry): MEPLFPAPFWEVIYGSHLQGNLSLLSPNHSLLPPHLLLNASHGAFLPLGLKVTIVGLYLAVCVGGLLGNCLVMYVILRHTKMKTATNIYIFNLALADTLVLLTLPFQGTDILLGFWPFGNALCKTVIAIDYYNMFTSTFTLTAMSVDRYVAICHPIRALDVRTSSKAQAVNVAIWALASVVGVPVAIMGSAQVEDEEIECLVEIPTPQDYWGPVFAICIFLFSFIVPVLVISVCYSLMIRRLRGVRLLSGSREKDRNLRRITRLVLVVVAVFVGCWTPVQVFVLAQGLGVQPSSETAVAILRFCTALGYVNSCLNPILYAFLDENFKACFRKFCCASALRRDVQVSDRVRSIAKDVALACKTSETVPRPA
T10 sequence (P35372 whole entry): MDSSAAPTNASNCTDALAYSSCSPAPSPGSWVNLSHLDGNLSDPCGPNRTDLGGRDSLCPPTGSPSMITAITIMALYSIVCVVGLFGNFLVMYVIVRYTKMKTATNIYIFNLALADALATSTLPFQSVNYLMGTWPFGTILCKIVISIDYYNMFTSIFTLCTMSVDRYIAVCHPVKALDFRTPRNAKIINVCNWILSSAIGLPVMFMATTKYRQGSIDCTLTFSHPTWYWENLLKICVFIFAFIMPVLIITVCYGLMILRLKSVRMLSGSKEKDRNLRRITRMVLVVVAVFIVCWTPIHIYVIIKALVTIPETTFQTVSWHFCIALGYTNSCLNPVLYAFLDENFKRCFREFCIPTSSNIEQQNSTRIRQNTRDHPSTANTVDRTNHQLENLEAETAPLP
T8 sequence (P41968 whole entry): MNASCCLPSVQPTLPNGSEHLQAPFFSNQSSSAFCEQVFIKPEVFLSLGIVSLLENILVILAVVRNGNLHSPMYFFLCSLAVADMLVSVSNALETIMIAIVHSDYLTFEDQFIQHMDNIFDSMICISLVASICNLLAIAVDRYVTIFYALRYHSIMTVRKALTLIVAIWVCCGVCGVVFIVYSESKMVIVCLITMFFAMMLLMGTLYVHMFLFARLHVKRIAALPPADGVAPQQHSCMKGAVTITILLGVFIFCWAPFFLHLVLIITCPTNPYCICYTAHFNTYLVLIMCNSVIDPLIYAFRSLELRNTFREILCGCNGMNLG
T11 sequence (Q99705 whole entry): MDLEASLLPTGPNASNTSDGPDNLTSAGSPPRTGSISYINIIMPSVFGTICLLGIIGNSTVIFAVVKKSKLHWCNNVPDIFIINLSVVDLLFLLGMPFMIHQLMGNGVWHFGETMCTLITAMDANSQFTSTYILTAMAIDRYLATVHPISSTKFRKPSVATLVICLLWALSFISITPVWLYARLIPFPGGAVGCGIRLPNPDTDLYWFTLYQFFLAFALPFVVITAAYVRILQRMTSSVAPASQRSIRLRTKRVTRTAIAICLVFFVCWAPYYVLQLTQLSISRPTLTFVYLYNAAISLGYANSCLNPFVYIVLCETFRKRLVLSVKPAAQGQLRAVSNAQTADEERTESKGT
T7 sequence (P32245 whole entry): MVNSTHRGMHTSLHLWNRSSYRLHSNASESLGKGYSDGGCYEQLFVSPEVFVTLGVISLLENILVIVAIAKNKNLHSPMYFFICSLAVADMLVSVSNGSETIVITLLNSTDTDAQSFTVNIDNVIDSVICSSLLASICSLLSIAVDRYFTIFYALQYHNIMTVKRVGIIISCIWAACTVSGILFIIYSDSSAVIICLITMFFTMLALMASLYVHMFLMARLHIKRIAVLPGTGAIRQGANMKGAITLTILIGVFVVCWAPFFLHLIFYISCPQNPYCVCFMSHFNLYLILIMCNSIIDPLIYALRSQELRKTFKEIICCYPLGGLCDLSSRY
T5 sequence (P41145 whole entry): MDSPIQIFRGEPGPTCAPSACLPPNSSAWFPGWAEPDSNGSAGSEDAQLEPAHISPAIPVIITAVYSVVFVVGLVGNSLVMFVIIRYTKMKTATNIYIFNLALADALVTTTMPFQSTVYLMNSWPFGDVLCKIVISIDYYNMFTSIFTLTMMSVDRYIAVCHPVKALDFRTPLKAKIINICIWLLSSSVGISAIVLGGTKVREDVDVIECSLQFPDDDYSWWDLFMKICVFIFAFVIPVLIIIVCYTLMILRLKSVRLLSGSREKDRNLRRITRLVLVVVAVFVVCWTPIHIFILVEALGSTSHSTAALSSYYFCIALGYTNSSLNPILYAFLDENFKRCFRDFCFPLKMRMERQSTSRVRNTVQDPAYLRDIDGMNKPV
T6 sequence (P33032 whole entry): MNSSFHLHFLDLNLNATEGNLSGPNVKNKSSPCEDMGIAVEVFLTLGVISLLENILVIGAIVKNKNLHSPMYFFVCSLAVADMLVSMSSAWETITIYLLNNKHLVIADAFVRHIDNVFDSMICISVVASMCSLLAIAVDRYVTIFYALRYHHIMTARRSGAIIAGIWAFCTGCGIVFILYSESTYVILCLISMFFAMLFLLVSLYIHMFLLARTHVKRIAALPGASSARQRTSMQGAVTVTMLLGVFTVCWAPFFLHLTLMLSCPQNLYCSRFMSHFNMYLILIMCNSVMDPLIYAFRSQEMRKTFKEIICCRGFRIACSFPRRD

## NCCCC(=O)NC1C(OCc2ccc3ccccc3c2)OC(COCc2ccc3ccccc3c2)C(O)C1OCc1ccc2ccccc2c1 (stereo not shown) [compound 393]
[1]
  A9: inhibition of radioligand binding: − (“−” indicates less than 50% inhibition at 10 μM)
Human neurokinin (NK1)
  A8: inhibition of radioligand binding: + (“+” indicates greater than 50% inhibition at 10 μM)
Human opioid (ORL1); 10 µM
  A10: inhibition of radioligand binding: − (“−” indicates less than 50% inhibition at 10 μM)
Mouse urotensin (mUR2)
  A11: inhibition of radioligand binding: − (“−” indicates less than 50% inhibition at 10 μM)
Human κ-Opioid (KOP)
  A2: inhibition of radioligand binding: − (“−” indicates less than 50% inhibition at 10 μM)
Human melanocortin (MC5)
  A5: inhibition of radioligand binding: + (“+” indicates greater than 50% inhibition at 10 μM)
Human Melanocortin (MC4); 10 µM
  A4: inhibition of radioligand binding: + (“+” indicates greater than 50% inhibition at 10 μM)
Human Melanocortin (MC3); 10 µM
  A3: inhibition of radioligand binding: + (“+” indicates greater than 50% inhibition at 10 μM)
Human δ-opioid (DOP)
  A1: inhibition of radioligand binding: − (“−” indicates less than 50% inhibition at 10 μM)
Human μ-opioid (MOP); 10 µM
  A7: inhibition of radioligand binding: − (“−” indicates less than 50% inhibition at 10 μM)
[2]; 10 µM
  A6: inhibition of radioligand binding: − (“−” indicates less than 50% inhibition at 10 μM)

## N=C(N)NCCCC(=O)NC1C(OCc2ccc(-c3ccccc3)cc2)OC(COCc2ccccc2)C(O)C1OCc1ccccc1 (stereo not shown) [compound 435]
[1]
  A9: inhibition of radioligand binding: − (“−” indicates less than 50% inhibition at 10 μM)
Human neurokinin (NK1)
  A8: inhibition of radioligand binding: + (“+” indicates greater than 50% inhibition at 10 μM)
Human opioid (ORL1)
  A10: inhibition of radioligand binding: + (“+” indicates greater than 50% inhibition at 10 μM)
Mouse urotensin (mUR2)
  A11: inhibition of radioligand binding: − (“−” indicates less than 50% inhibition at 10 μM)
Human κ-Opioid (KOP)
  A2: inhibition of radioligand binding: + (“+” indicates greater than 50% inhibition at 10 μM)
Human melanocortin (MC5)
  A5: inhibition of radioligand binding: + (“+” indicates greater than 50% inhibition at 10 μM)
Human Melanocortin (MC4)
  A4: inhibition of radioligand binding: + (“+” indicates greater than 50% inhibition at 10 μM)
Human Melanocortin (MC3)
  A3: inhibition of radioligand binding: + (“+” indicates greater than 50% inhibition at 10 μM)
Human δ-opioid (DOP)
  A1: inhibition of radioligand binding: − (“−” indicates less than 50% inhibition at 10 μM)
Human μ-opioid (MOP)
  A7: inhibition of radioligand binding: + (“+” indicates greater than 50% inhibition at 10 μM)
[2]
  A6: inhibition of radioligand binding: + (“+” indicates greater than 50% inhibition at 10 μM)
